A short description of assay [1]: Passive avoidance test in scopolamine-induced cognitive impairment animal model. As to conditions: 5 mg/kg, 24 h after shock. Format: in vivo, rodents. The source says:
The passive avoidance test is a cognitive ability assessment experiment that utilizes the preference of rodents to stay in dark places.
Specifically, saline (as a vehicle), donepezil (a therapeutic agent for cognitive impairment or AD), decursin (a functional ingredient recognized for improving cognitive function), or the strain of the present invention was co-administered with scopolamine which induces memory impairment, followed by the passive avoidance test. […]
The control and experimental groups were placed in chambers consisting of a bright chamber and a dark chamber of the same size. […] After 24 hours, the animals were again placed in the bright chamber, and the time taken to enter the dark chamber was measured for up to 300 seconds to evaluate memory.

Assay [2] is described as follows: Y-maze test in scopolamine-induced cognitive impairment animal model. The note with it: 5 mg/kg. The format is in vivo. As to the method:
The Y-maze test is used to assess short-term memory and momentary spatial perception by evaluating the animal's ability to remember the previously explored arm, with higher memory performance indicated by a lower tendency to re-enter the same arm.
Specifically, scopolamine, which induces memory impairment, was administered together with either saline (vehicle), a known treatment for cognitive impairment or AD (donepezil or decursin), or the strain of the present invention, followed by the Y-maze test.
The Y-maze consists of three arms with dimensions of 40 cm in length, 3 cm in width, and 15 cm in height, with the angles between the arms set at 120°. […]
The control and experimental groups were placed at the center of the Y-maze, where they were allowed to explore the maze for 8 minutes. The movement of each individual was analyzed using EthoVision XT16 (Noldus, USA). The experimental results were obtained as spontaneous alternation behavior (%) and calculated according to the following equation: […]

Take `COc1cc2c(cc1OC)C(=O)C(CC1CCN(Cc3ccccc3)CC1)C2` (stereo not shown) [donepezil]: in assay [1], the memory recovery entry is “about 74%”. Also, in assay [2], the “increase in spontaneous alternation behavior compared to vehicle-treated group (G2)” value is listed as around 1.3 fold.

In the case of `CC(C)=CC(=O)O[C@H]1Cc2cc3ccc(=O)oc3cc2OC1(C)C` [decursin], in assay [1], the memory recovery entry was “about 87%”. For the same compound, the “increase in spontaneous alternation behavior compared to vehicle-treated group (G2)” value in assay [2] is around 1.3 fold.

The values are drawn from patent US20260151441A1, “NOVEL USE OF LACTOBACILLUS DELBRUECKII SUBSP. LACTIS STRAIN” (CKD BIO CORPORATION, priority 2022, published 2026).
